# The source made the active and inactive calls. The rule behind the calls is not given here.
# Tests used:
# Bemisia tabaci [1] = test: Insecticidal activity against adult Bemisia tabaci biotype B (sweet potato whitefly) reared on compound pre-treated cotton seedlings assessed as insect mortality at 20 mg/L of active ingredient measured up to 4 days post dose; type: functional
# Bemisia tabaci [2] = test: Insecticidal activity against adult Bemisia tabaci biotype B (sweet potato whitefly) exposed to 0.1 mg of active ingredient per liter of compound for 30 generations reared on compound pre-treated cotton seedlings assessed as insect mortality at 0.8 mg/L of active ingredient; type: functional
# Myzus persicae [3] = test: Insecticidal activity against Myzus persicae Fluf-RG-15 (green peach aphid) first nymphal stages exposed to 0.1 mg of active ingredient per liter of compound for 15 generations grown on compound pre-treated mustard leaves assessed as insect mortality measured 72 hr post compound dose; type: functional
# Bemisia tabaci [4] = test: Insecticidal activity against thiamethoxam-resistant adult Bemisia tabaci ActRQ-G95 reared on compound-pre-treated cotton seedlings assessed as insect mortality; type: functional
# Bemisia tabaci [5] = test: Inhibition of oviposition of Bemisia tabaci biotype B (sweet potato whitefly) reared on cotton seedlings at 10 mg/L of active ingredient by oviposition nonchoice assay; type: functional, organism-based
# Bemisia tabaci [6] = test: Inhibition of oviposition of Bemisia tabaci biotype B (sweet potato whitefly) reared on cotton seedlings at 10 mg/L of active ingredient by oviposition choice assay; type: functional, organism-based
# Spodoptera littoralis [7] = test: Insecticidal activity against Spodoptera littorali first-instar stages grown on compound pre-treated cotton leaves assessed as insect mortality at 0.5 mg/L of active ingredient measured 72 hr post compound dose; type: functional
# Bemisia tabaci [8] = test: Insecticidal activity against adult Bemisia tabaci biotype B (sweet potato whitefly) reared on compound-pretreated cotton seedlings assessed as insect mortality at 0.5 mg/L of active ingredient measured 48 hr post compound dose; type: functional
# Spodoptera littoralis [9] = test: Insecticidal activity against Spodoptera littorali first-instar stages grown on compound pre-treated cotton leaves assessed as insect mortality measured 72 hr post compound dose; type: functional
# Spodoptera littoralis [10] = test: Insecticidal activity against Spodoptera littorali first-instar stages grown on compound pre-treated cotton leaves assessed as insect mortality at 6.32 mg/L of active ingredient measured 72 hr post compound dose; type: functional
# Bemisia tabaci [11] = test: In-vivo inhibition of Bemisia tabaci (sweet potato whitefly) AChE isolated from white fly feeding on compound-pre-treated cotton leaves for 48 hr assessed as reduction in acetylthiocholine iodide hydrolysis by Ellman method based colorimetry; type: functional, organism-based
# AChE2 (Bemisia tabaci) = AChE2 (Bemisia tabaci) (UniProt B3SST5); test: Inhibition of AChE in Bemisia tabaci (sweet potato whitefly) homogenates assessed as reduction in acetylthiocholine iodide hydrolysis by Ellman method based colorimetry
# Spodoptera littoralis [12] = test: Insecticidal activity against Spodoptera littorali first-instar stages grown on compound pre-treated cotton leaves assessed as insect mortality under out door conditions at 16 mg/L of active ingredient measured after 2 days post dose; type: functional
# Bemisia tabaci [13] = test: Insecticidal activity against adult Bemisia tabaci biotype B (sweet potato whitefly) reared on compound pre-treated cotton seedlings assessed as insect mortality under out door conditions at 30 mg/L of active ingredient measured after 2 days post dose; type: functional
# Bemisia tabaci [14] = test: Insecticidal activity against adult Bemisia tabaci biotype B (sweet potato whitefly) reared on compound pre-treated cotton seedlings assessed as insect mortality under out door conditions at 30 mg/L of active ingredient measured after 1 days post dose; type: functional
# Bemisia tabaci [15] = test: Insecticidal activity against adult Bemisia tabaci biotype B (sweet potato whitefly) reared on compound pre-treated cotton seedlings assessed as insect mortality at 20 mg/L of active ingredient measured after 7 days post dose; type: functional, organism-based
# Spodoptera littoralis [16] = test: Insecticidal activity against Spodoptera littorali first-instar stages grown on compound pre-treated cotton leaves assessed as insect mortality at 16 mg/L of active ingredient measured after 14 days post dose; type: functional
# Spodoptera littoralis [17] = test: Insecticidal activity against Spodoptera littorali first-instar stages grown on compound pre-treated cotton leaves assessed as insect mortality at 16 mg/L of active ingredient measured after 7 days post dose; type: functional
# Spodoptera littoralis [18] = test: Insecticidal activity against Spodoptera littorali first-instar stages grown on compound pre-treated cotton leaves assessed as insect mortality at 16 mg/L of active ingredient measured up to 4 days post dose; type: functional
# Myzus persicae [19] = test: Insecticidal activity against Myzus persicae (green peach aphid) first nymphal stages grown on compound pre-treated mustard leaves assessed as insect mortality measured 72 hr post compound dose; type: functional
# Myzus persicae [20] = test: Insecticidal activity against Myzus persicae (green peach aphid) first nymphal stages grown on compound pre-treated mustard leaves assessed as insect mortality at 1 mg/L of active ingredient measured 72 hr post compound dose; type: functional
# Bemisia tabaci [21] = test: Insecticidal activity against adult Bemisia tabaci biotype B (sweet potato whitefly) reared on cotton seedlings assessed as induction of insect mortality; type: functional
# Bemisia tabaci [22] = test: Insecticidal activity against adult Bemisia tabaci biotype B (sweet potato whitefly) reared on cotton seedlings assessed as insect mortality at 0.8 mg/L of active ingredient; type: functional
# Spodoptera frugiperda [23] = test: Insecticidal activity against Spodoptera frugiperda (fall armyworm) fed with compound pre-treated sweet corn foliage 3 hr after compound application assessed as induction of mortality on day 1 and 2 post compound application; type: functional
# Spodoptera frugiperda [24] = test: Insecticidal activity against Spodoptera frugiperda (fall armyworm) fed with compound pre-treated sweet corn foliage 3 hr after compound application assessed as induction of mortality on day 0 post compound application; type: functional
# Chain of AChE2 (Bemisia tabaci) (B3SST5 as listed by the source): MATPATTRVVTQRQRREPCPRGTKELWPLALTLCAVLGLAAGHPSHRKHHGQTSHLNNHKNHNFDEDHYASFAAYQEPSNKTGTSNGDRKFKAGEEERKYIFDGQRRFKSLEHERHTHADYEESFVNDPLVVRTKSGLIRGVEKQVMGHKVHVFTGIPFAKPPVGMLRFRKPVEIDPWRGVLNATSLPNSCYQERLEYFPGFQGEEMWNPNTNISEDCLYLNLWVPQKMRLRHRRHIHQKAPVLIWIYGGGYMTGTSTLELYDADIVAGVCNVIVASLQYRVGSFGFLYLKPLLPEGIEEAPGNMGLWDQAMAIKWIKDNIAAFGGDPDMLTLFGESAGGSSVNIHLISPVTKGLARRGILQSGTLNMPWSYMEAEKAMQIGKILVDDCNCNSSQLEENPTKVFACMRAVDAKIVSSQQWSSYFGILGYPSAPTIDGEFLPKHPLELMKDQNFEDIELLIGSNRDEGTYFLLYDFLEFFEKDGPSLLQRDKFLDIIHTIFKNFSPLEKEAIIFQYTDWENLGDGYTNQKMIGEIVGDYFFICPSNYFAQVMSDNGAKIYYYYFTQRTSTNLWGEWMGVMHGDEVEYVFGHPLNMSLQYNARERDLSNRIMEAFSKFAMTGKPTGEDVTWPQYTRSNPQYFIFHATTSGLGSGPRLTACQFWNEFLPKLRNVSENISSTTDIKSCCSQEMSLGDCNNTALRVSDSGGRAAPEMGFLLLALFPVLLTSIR
structure (smiles),measurement,setting,value
CC(F)c1ncnc(NCCc2ccc(OC(F)(F)F)cc2)c1Cl (configuration not stated) [FLUFENERIM],mortality,Bemisia tabaci [1],80%
same,LC50,Bemisia tabaci [2],2.38 mgAi/L
same,LC90,Bemisia tabaci [2],6.32 mgAi/L
same,LC50,Myzus persicae [3],0.31 mgAi/L
same,LC90,Myzus persicae [3],1.22 mgAi/L
same,LC50,Bemisia tabaci [4],0.41 mgAi/L
same,LC90,Bemisia tabaci [4],2.4 mgAi/L
same,inhibition,Bemisia tabaci [5],Active
same,inhibition,Bemisia tabaci [6],Active
same,mortality,Spodoptera littoralis [7],90%
same,mortality,Bemisia tabaci [8],94%
same,LC50,Spodoptera littoralis [9],2.38 mgAi/L
same,mortality,Spodoptera littoralis [10],90%
same,inhibition,Bemisia tabaci [11],Active
same,inhibition,AChE2 (Bemisia tabaci),Active
same,mortality,Spodoptera littoralis [12],>80%
same,mortality,Bemisia tabaci [13],30%
same,mortality,Bemisia tabaci [14],90%
same,Activity,Bemisia tabaci [15],inactive
same,mortality,Spodoptera littoralis [16],28%
same,mortality,Spodoptera littoralis [17],55%
same,mortality,Spodoptera littoralis [18],80%
same,LC50,Myzus persicae [19],0.39 mgAi/L
same,LC90,Myzus persicae [19],1.12 mgAi/L
same,mortality,Myzus persicae [20],90%
same,LC50,Bemisia tabaci [21],0.35 mgAi/L
same,LC90,Bemisia tabaci [21],1.24 mgAi/L
same,mortality,Bemisia tabaci [22],97%
CNC(=O)ON=C(C)SC [METHOMYL],mortality,Spodoptera littoralis [7],6%
same,mortality,Bemisia tabaci [8],10%
same,mortality,Spodoptera frugiperda [23],5%
same,mortality,Spodoptera frugiperda [24],50%

# From ChEMBL document CHEMBL3045181, “Flufenerim, a novel insecticide acting on diverse insect pests: biological mode of action and biochemical aspects” (2011)
